ChEMBL document CHEMBL2346562, “Substituted 7-amino-5-thio-thiazolo[4,5-d]pyrimidines as potent and selective antagonists of the fractalkine receptor (CX3CR1)” (J Med Chem, 2013)
Active and inactive are the calls of the source. The rule behind the calls is not given here.

How the values were obtained:
in vitro = settings: human, liver microsomes
Description: Metabolic stability in human liver microsomes assessed as intrinsic clearance by LC-MS/MS analysis

[1] = molecular target: C-C chemokine receptor type 5 (Homo sapiens) (UniProt P51681); test: Antagonist activity at CCR5 (unknown origin)
[2] = Half life in Sprague-Dawley rat at 10 umol/kg, po by LC-MS analysis; assay type: ADME, organism-based; settings: in vivo
[3] = molecular target: T1, C-C chemokine receptor type 6 (Homo sapiens) (UniProt P51684); test: Antagonist activity at CCR6 (unknown origin)
T1 sequence (whole entry): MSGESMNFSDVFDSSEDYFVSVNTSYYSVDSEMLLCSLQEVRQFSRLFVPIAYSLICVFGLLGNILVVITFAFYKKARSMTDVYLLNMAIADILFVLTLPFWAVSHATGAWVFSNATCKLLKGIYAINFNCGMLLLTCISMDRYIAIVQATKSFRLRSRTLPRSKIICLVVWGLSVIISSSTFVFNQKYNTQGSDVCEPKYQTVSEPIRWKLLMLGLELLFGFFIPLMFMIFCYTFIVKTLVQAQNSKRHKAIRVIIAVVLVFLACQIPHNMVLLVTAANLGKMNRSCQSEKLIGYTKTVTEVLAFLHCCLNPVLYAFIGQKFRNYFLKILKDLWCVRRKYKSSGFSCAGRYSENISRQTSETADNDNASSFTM

[4] = molecular target: Sodium-dependent serotonin transporter (Homo sapiens) (UniProt P31645); test: Binding affinity to serotonin transporter (unknown origin)
[5] = molecular target: T2, CX3C chemokine receptor 1 (Rattus norvegicus) (UniProt P35411); test: Inhibition of CX3CR1 in rat blood monocytes assessed as inhibition of FKN-induced actin polymerization; assay type: cell-based
T2 sequence (whole entry): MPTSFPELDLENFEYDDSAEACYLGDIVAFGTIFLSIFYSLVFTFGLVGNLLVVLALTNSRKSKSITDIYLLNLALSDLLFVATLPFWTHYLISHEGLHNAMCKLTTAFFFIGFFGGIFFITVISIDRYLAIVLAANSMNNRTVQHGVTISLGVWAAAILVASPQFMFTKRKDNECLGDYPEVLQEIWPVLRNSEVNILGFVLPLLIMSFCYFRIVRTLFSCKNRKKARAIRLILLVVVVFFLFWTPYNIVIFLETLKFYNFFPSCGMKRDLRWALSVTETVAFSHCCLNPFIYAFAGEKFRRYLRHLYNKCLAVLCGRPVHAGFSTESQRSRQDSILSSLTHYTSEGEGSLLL

[6] = molecular target: T3, C-C chemokine receptor type 3 (Homo sapiens) (UniProt P51677); test: Antagonist activity at CCR3 (unknown origin)
T3 sequence (whole entry): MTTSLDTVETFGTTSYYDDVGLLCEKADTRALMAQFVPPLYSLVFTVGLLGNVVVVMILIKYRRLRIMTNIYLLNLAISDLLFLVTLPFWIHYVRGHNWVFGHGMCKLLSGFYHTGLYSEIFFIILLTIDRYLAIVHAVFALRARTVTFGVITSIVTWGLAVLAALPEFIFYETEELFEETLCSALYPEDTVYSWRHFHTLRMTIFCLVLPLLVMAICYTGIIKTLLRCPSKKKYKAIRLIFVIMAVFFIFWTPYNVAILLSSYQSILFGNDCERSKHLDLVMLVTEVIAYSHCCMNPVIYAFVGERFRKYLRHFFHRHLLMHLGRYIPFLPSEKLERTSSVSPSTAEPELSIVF

[7] = Half life in Sprague-Dawley rat at 3 umol/kg, iv by LC-MS analysis; assay type: ADME, organism-based; settings: in vivo

Chain of C-C chemokine receptor type 5 (Homo sapiens) (P51681 whole entry, looked up): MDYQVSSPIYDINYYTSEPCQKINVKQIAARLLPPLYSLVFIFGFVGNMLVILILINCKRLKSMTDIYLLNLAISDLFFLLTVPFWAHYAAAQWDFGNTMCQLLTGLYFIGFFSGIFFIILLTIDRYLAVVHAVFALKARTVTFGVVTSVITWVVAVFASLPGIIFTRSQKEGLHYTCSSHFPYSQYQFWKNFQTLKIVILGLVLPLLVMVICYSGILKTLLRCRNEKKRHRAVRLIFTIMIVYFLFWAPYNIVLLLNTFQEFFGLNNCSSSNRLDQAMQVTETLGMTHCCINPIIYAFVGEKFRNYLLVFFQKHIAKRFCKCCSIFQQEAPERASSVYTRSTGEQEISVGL
Chain of Sodium-dependent serotonin transporter (Homo sapiens) (P31645 whole entry, looked up): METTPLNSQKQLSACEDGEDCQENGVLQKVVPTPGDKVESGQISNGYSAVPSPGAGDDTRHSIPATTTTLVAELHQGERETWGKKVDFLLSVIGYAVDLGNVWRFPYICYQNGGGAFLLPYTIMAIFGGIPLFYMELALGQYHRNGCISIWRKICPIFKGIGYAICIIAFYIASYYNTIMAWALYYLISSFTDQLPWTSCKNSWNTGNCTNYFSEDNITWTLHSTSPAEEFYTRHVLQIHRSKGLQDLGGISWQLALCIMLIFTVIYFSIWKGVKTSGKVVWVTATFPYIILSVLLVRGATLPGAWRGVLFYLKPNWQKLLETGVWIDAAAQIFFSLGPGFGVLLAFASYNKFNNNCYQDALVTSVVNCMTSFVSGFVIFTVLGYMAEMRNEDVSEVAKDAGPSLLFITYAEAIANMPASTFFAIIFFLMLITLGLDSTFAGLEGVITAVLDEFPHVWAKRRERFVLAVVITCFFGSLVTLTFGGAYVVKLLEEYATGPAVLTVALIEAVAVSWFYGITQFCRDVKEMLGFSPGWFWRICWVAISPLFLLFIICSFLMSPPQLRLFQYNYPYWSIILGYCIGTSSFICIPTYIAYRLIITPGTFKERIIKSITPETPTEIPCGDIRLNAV

In the case of `CC(C)C[C@H](CO)Nc1nc(S[C@@H](C)c2ccccc2)nc2nc(N)sc12` [AZD-8797], the microsomal CLint (in vitro) is reported as 34 µL/min/mg, the Activity [1] is reported as “inactive” and the half-life [2] is reported as 2.7 h. For the same compound, the Activity [3] was “inactive”, the Activity [4] was “Active” and the inhibition [5] was “Dose-dependent effect”. The Activity [6] was “inactive” and the half-life [7] was 1.9 h.
